The text below walks through data of patent US12528819B2 (priority 2016, dated 2026).

Entries after “also recorded” stand apart in the source; their conditions may differ. Some results are limits rather than exact numbers.

The target of the first data set is T1, α5β2γ2 subtype GABAAR (Homo sapiens, UniProt P18507+P31644).
T1 construct: expressed in transfected cells
T1 sequence (P31644 32-462): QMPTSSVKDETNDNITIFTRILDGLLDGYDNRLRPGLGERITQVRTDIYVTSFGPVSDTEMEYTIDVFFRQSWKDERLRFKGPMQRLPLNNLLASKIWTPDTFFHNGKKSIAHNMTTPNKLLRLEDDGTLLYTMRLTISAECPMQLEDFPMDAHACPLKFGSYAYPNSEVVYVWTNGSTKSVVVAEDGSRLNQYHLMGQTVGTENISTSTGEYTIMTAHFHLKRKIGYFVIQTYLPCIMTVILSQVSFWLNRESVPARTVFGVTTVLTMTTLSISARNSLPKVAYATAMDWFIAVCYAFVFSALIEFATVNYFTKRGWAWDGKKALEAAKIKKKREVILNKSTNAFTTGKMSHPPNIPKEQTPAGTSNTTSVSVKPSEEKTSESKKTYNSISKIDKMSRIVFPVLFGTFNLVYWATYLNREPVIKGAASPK
T1 sequence (P47870 25-512 partner limits assumed): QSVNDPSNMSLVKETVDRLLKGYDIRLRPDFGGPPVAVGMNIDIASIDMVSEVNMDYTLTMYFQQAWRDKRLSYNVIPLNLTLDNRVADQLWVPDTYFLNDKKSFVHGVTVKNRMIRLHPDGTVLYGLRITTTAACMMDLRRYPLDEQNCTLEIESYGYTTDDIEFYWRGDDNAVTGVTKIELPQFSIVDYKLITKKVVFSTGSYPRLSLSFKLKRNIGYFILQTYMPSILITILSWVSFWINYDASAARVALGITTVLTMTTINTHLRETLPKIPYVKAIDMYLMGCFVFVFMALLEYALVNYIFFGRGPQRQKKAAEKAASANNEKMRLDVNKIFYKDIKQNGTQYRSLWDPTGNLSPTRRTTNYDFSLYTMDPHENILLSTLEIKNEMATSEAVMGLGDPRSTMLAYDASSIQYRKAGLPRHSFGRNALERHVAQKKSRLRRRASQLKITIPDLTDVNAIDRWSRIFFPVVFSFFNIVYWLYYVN
T1 sequence (P18507 40-467 limits assumed): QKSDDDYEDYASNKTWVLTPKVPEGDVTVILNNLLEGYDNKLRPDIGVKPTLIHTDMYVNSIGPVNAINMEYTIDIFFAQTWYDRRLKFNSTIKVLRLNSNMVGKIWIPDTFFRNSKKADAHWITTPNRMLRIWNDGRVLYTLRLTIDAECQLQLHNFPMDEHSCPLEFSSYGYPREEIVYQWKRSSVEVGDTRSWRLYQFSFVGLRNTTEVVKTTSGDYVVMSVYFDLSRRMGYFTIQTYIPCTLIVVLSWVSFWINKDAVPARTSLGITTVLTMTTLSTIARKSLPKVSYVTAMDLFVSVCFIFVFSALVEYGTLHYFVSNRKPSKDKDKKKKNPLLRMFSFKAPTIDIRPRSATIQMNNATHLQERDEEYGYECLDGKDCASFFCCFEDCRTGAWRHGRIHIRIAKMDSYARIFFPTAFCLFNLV
In words: Positive allosteric modulator activity: potentiation of EC20 GABA current in oocytes. The data set is classed as cell-based. The settings on record: read-out: GABA α5 Functional Data (potentiation), @ 100 nM, reported as ranges. The method, boiled down:
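Xenopus oocytes injected with 1 ng α5:β2:γ2 cDNA (1:1:10 by weight) and recorded on day 2 by two-electrode voltage clamp under MBS superfusion. Potentiation (%) = Itest/IGABA at EC20 GABA; each oocyte used for one concentration only.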
For `FC(F)(F)CC#Cc1ncn2c1Cc1cnnn1-c1cc(Cl)ccc1-2` [Compound 398], the activation at 0.1 µM lay in the range of 20 to 50%.

For the compound `FC(F)(F)c1ccc(C#Cc2ncn3c2Cc2cnnn2-c2cc(Cl)ccc2-3)cc1` [Compound 400], the activation at 0.1 µM lay within 20 to 50%.

Consider `Clc1ccc2c(c1)-n1nncc1Cc1c(C#Cc3ccccn3)ncn1-2` [Compound 401], for which the activation at 0.1 µM was 5 to 20%.

`Clc1ccc2c(c1)-n1nncc1Cc1c(C#Cc3cccnc3)ncn1-2` [Compound 402]: the activation at 0.1 µM was 20 to 50%.

Take `COc1ccc2c(c1)-n1nncc1Cc1c(C#Cc3ccccc3)ncn1-2` [Compound 404]: the activation at 0.1 µM was 5 to 20%.

As for `COc1ccc2c(c1)-n1nncc1Cc1c(C#Cc3ccccc3C)ncn1-2` [Compound 405], the activation at 0.1 µM was in the range of 5 to 20%.

Turning to `COc1ccc2c(c1)-n1nncc1Cc1c(C#Cc3ccc(C(F)(F)F)cc3)ncn1-2` [Compound 406], the activation at 0.1 µM is 20 to 50%.

Turning to `COc1ccc2c(c1)-n1nncc1Cc1c(C#Cc3cccnc3)ncn1-2` [Compound 407], the activation at 0.1 µM fell in the range of 5 to 20%.

As to `COc1ccc2c(c1)-n1nncc1Cc1c(C#Cc3ccccn3)ncn1-2` [Compound 408], the activation at 0.1 µM was 5 to 20%.

With `COc1cccc(C#Cc2ncn3c2Cc2cnnn2-c2cc(OC)ccc2-3)c1` [Compound 409], the activation at 0.1 µM is 5 to 20%.

`COc1ccc2c(c1)-n1nncc1Cc1c(C#CCc3ccccc3)ncn1-2` [Compound 413]: the activation at 0.1 µM is 5 to 20%.

For the compound `COc1ccc(C#Cc2ncn3c2Cc2cnnn2-c2cc(OC)ccc2-3)cc1` [Compound 414], the activation at 0.1 µM lay within 20 to 50%.

Consider `CC(C)C#Cc1ncn2c1Cc1cnnn1-c1cc(Cl)ccc1-2` [Compound 415], for which the activation at 0.1 µM lay in the range of 20 to 50%.

With `COc1ccc2c(c1)-n1nncc1Cc1c(C#CCc3cccc(Cl)c3)ncn1-2` [Compound 417], the activation at 0.1 µM lay in the range of 5 to 20%.

As to `COc1ccc2c(c1)-n1nncc1Cc1c(C#CCc3cccc(OC(F)(F)F)c3)ncn1-2` [Compound 418], the activation at 0.1 µM fell in the range of 20 to 50%.

As to `COc1ccc2c(c1)-n1nncc1Cc1c(C#CCc3cccc(F)c3)ncn1-2` [Compound 419], the activation at 0.1 µM is 20 to 50%.

For `COc1ccc2c(c1)-n1nncc1Cc1c(C#CCc3ccccc3OC(F)(F)F)ncn1-2` [Compound 420], the activation at 0.1 µM fell in the range of 5 to 20%.

With `COCc1nnc2n1Cc1c(C#CCc3cccc(F)c3)ncn1-c1ccc(Cl)cc1-2` [Compound 421], the activation at 0.1 µM was 20 to 50%.

As for `COCc1nnc2n1Cc1c(C#CCc3cccc(Cl)c3)ncn1-c1ccc(Cl)cc1-2` [Compound 422], the activation at 0.1 µM is 20 to 50%.

`COCc1nnc2n1Cc1c(C#CCc3cccc(OC(F)(F)F)c3)ncn1-c1ccc(Cl)cc1-2` [Compound 423]: the activation at 0.1 µM fell in the range of 5 to 20%.

As for `CC(C)C#Cc1ccc2c(c1)-n1nncc1Cc1c(Br)ncn1-2` [Compound 454], the activation at 0.1 µM was in the range of 5 to 20%.

A further data set relates to aged-impaired (AI) rats. In words: Radial Arm Maze (RAM) behavioral task, spatial memory retention. The data set is classed as in vivo, rat. The settings on record: 3 mg/kg, four-hour delay, t(7)=4.13, p=0.004, or t(7)=3.08, p=0.018. On the procedure: The effects of methyl 3,5-diphenylpyridazine-4-carboxylate on the in vivo spatial memory retention of aged-impaired (AI) rats were assessed in a Radial Arm Maze (RAM) behavioral task using vehicle control and four different dosage levels of methyl 3,5-diphenylpyridazine-4-carboxylate (0.1 mg/kg, 0.3 mg/kg, 1 mg/kg and 3 mg/kg, ip). RAM behavioral tasks were performed on eight AI rats. All five treatment conditions (vehicle and four dosage levels) were tested on all eight rats.
The RAM apparatus used consisted of eight equidistantly-spaced arms. An elevated maze arm (7 cm width×75 cm length) projected from each facet of an octagonal center platform (30 cm diameter, 51.5 cm height). Clear side walls on the arms were 10 cm high and were angled at 65° to form a trough. A food well (4 cm diameter, 2 cm deep) was located at the distal end of each arm. Froot Loops™ (Kellogg Company) were used as rewards. Blocks constructed of Plexiglas™ (30 cm height×12 cm width) could be positioned to prevent entry to any arm. Numerous extra maze cues surrounding the apparatus were also provided.
The AI rats were initially subjected to a pre-training test (Chappell et al. Neuropharmacology 37: 481-487, 1998). The pre-training test consisted of a habituation phase (4 days), a training phase on the standard win-shift task (18 days) and another training phase (14 days) in which a brief delay was imposed between presentation of a subset of arms designated by the experimenter (e.g., 5 arms available and 3 arms blocked) and completion of the eight-arm win-shift task (i.e., with all eight arms available).
In the habituation phase, rats were familiarized to the maze for an 8-minute session on four consecutive days. In each of these sessions, food rewards were scattered on the RAM, initially on the center platform and arms and then progressively confined to the arms. After this habituation phase, a standard training protocol was used, in which a food pellet was located at the end of each arm. Rats received one trial each day for 18 days. Each daily trial terminated when all eight food pellets had been obtained or when either 16 choices were made or 15 minutes had elapsed. After completion of this training phase, a second training phase was carried out in which the memory demand was increased by imposing a brief delay during the trial. At the beginning of each trial, three arms of the eight-arm maze were blocked. Rats were allowed to obtain food on the five arms to which access was permitted during this initial “information phase” of the trial. Rats were then removed from the maze for 60 seconds, during which time the barriers on the maze were removed, thus allowing access to all eight arms. […]
In the case of `CCOC(=O)c1ncn2c1Cn1c(C)nnc1-c1cc(OC)ccc1-2`, the “memory performance relative to vehicle control” value was “significantly improved memory performance”.

The same data set, now with this note: 10 mg/kg, four-hour delay, p 0.026.
For `CCOC(=O)c1ncn2c1Cn1c(C)nnc1-c1cc(OC)ccc1-2`, the “memory performance relative to vehicle control” value is “significantly improved memory performance”.

In another data set the target is T2, GABAA α5 receptor (Rattus norvegicus, UniProt P18508+P19969).
T2 construct: from tissue; host or cells: rat brain in vivo; hippocampus versus cerebellum
T2 sequence (P19969 32-464 limits assumed): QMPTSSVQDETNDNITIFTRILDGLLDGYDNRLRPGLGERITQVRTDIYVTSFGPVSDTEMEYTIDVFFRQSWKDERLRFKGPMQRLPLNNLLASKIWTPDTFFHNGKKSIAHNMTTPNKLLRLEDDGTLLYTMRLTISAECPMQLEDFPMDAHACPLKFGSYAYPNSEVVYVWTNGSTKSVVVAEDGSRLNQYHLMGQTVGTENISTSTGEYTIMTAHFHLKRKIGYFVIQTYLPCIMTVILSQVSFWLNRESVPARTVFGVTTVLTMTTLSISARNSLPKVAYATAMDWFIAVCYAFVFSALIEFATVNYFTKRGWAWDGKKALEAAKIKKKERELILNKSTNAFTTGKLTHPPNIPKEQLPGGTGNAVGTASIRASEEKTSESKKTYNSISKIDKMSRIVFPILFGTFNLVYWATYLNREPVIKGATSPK
T2 sequence (P18508 39-466): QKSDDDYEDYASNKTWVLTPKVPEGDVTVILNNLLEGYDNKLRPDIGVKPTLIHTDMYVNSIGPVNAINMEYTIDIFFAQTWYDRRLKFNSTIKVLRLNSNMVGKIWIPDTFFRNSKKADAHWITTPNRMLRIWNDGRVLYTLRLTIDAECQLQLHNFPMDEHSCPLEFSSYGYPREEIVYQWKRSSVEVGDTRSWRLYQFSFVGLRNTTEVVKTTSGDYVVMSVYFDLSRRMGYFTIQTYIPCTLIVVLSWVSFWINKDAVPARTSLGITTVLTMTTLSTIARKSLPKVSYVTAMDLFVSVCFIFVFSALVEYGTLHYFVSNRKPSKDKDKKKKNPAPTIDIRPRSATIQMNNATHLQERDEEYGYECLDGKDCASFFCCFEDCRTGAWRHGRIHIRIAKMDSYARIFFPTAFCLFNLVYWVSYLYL
In words: GABAA α5 receptor occupancy with Ro 15-4513 tracer (hippocampus vs cerebellum). The data set is classed as in vivo. The settings on record: 0.01-10 mg/kg, i.v. The source says:
Food and water were available ad libitum.
Take `CCOC(=O)c1ncn2c1Cn1c(C)nnc1-c1cc(OC)ccc1-2`: the “effect on Ro 15-4513 binding in hippocampus” value is “reduced; also recorded: blocked” and the “effect on Ro 15-4513 levels (binding) in cerebellum” value was “without affecting; also recorded: did not affect”.

Staying with this data set, now noted: 10 mg/kg, i.v.
`CCOC(=O)c1ncn2c1Cn1c(C)nnc1-c1cc(OC)ccc1-2`: the “GABAA α5 receptor occupancy” value was over 90%.

The same data set, now with this note: tracer 1 μg/kg, i.v., after vehicle administration.
As to `CCOC(=O)c1ncn2c1CN(C)C(=O)c1cc(N=[N+]=[N-])ccc1-2` [Ro 15-4513], the “levels of Ro 15-4513 in hippocampus compared with cerebellum” value was over 5 fold.
